Measured values published in patent publication EP2366702A1, “New oxadiazole derivatives” (Almirall, S.A., priority 2010, dated 2011).

Molecular target: S1P1 (Homo sapiens, UniProt P21453)
Test: 35S-GTPyS binding assay
Format: biochemical
Conditions: membranes; 10µM S1P used as 100% maximum efficacy; 90 min at room temperature
Protocol: The effect of the compounds was measured using a 35S-GTPyS binding assay. Briefly, membranes were incubated in a buffer containing 20 mM HEPES pH 7.4, 100 mM NaCl, 10 mM MgCl2, 10µM GDP, 50µg/ml saponin and 0.2% fatty acid-free BSA at various concentrations (0.1nM-10µM) and 0.1nM 35S-GTPyS. 10µM S1P was used as 100% maximum efficacy. The assay was incubated for 90 min at room temperature with gentle mixing, and terminated by filtrating the reaction mixture through GF/C filter plates using the Manifold Filtration System. The filters were immediately washed with sodium phosphate pH 7.4 buffers. After drying the filter plate's scintillant liquid were added to each well and 35S-GTPyS binding was measured on a Trilux Scintillation Counter.

Sequence of S1P1 (P21453 whole entry, species assumed): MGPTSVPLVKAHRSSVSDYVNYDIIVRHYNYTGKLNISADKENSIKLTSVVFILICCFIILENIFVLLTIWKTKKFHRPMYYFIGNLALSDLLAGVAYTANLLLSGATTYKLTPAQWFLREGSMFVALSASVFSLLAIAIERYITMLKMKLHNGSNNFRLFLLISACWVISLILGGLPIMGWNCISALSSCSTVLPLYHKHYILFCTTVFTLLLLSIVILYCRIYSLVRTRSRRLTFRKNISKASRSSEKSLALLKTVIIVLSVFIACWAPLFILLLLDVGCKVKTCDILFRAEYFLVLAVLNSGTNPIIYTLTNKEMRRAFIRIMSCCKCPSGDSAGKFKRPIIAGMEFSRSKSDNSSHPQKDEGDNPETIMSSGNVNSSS

| Compound | EC50 |
| --- | --- |
| Cc1cc(-c2noc(-c3nn(C)c4c3CCC(C)(C)C4)n2)cc(C)c1CCNC(=O)CN [Example 2, N-1-(2-{2,6-dimethyl-4-[5-(1,6,6-trimethyl-4,5,6,7-tetrahydro-1H-indazol-3-yl)-1,2,4-oxadiazol-3-yl]phenyl}ethyl)glycinamide] | 1.99 nM |
| Cc1cc(-c2noc(-c3nn(C)c4c3CCC(C)(C)C4)n2)cc(C)c1CCP(=O)(O)O [Example 21, (2-{2,6-dimethyl-4-[5-(1,6,6-trimethyl-4,5,6,7-tetrahydro-1H-indazol-3-yl)-1,2,4-oxadiazol-3-yl]phenyl}ethyl)phosphonic acid] | 3.08 nM |
| Cc1cc(-c2noc(-c3nn(C)c4c3CCC(C)(C)C4)n2)cc(C)c1CCn1cncn1 [Example 16, 3-(3-{3,5-dimethyl-4-[2-(1H-1,2,4-triazol-1-yl)ethyl]phenyl}-1,2,4-oxadiazol-5-yl)-1,6,6-trimethyl-4,5,6,7-tetrahydro-1H-indazole] | 12.1 nM |

More lines, in order of falling EC50, values ahead:

| EC50 | Compound |
| --- | --- |
| 37.5 nM | Cc1cc(-c2noc(-c3nn(C)c4c3CCC(C)(C)C4)n2)cc(C)c1CCC(C)(C)O [Example 17, 4-{2,6-dimethyl-4-[5-(1,6,6-trimethyl-4,5,6,7-tetrahydro-1H-indazol-3-yl)-1,2,4-oxadiazol-3-yl]phenyl}-2-methylbutan-2-ol] |
| 19.2 nM | Cc1cc(-c2noc(-c3nn(C)c4c3CCC(C)(C)C4)n2)cc(C)c1CCNCCn1cncn1 [Example 6, (2-{2,6-dimethyl-4-[5-(1,6,6-trimethyl-4,5,6,7-tetrahydro-1H-indazol-3-yl)-1,2,4-oxadiazol-3-yl]phenyl}ethyl)[2-(1H-1,2,4-triazol-1-yl)ethyl]amine] |
| 10.3 nM | Cc1cc(-c2noc(-c3nn(C)c4c3CCC(C)(C)C4)n2)cc(C)c1CCn1nccc1C(=O)O [Example 24, 1-(2-{2,6-dimethyl-4-[5-(1,6,6-trimethyl-4,5,6,7-tetrahydro-1H-indazol-3-yl)-1,2,4-oxadiazol-3-yl]phenyl}ethyl)-1H-pyrazole-5-carboxylic acid] |
| 6.37 nM | Cc1cc(-c2noc(-c3nn(C)c4c3CCC(C)(C)C4)n2)cc(C)c1CCn1cc(C(=O)O)cn1 [Example 22, 1-(2-{2,6-dimethyl-4-[5-(1,6,6-trimethyl-4,5,6,7-tetrahydro-1H-indazol-3-yl)-1,2,4-oxadiazol-3-yl]phenyl}ethyl)-1H-pyrazole-4-carboxylic acid] |
